How the values were obtained:
[1] = system: Human immunodeficiency virus 2; assay: Antiviral activity against wild type HIV-2 ROD infected in human MT4 cells assessed as protection against virus-induced cytopathic effect incubated for 5 days by MTT assay; format: functional, organism-based; conditions: Human immunodeficiency virus 2, ROD, MT4, 120 h
[2] = system: Human immunodeficiency virus 1; assay: Antiviral activity against wild type HIV-1 IIIB infected in human MT4 cells assessed as protection against virus-induced cytopathic effect incubated for 5 days by MTT assay; format: functional, organism-based; conditions: Human immunodeficiency virus 1, IIIB, MT4, 120 h
[3] = Cytotoxicity against human MT4 cells assessed as reduction in cell viability incubated for 5 days by MTT assay; format: toxicity, cell-based; conditions: time 5 day
[4] = system: Human immunodeficiency virus 1; assay: Antiviral activity against HIV-1 […] mutant infected in human MT4 cells assessed as protection against virus-induced cytopathic effect incubated for 5 days by MTT assay; format: functional, organism-based; conditions: Human immunodeficiency virus 1, MT4, 120 h
[5] = system: Human immunodeficiency virus 1; assay: Antiviral activity against HIV-1 K103N mutant infected in human MT4 cells assessed as protection against virus-induced cytopathic effect incubated for 5 days by MTT assay; format: functional, organism-based; conditions: Human immunodeficiency virus 1, MT4, 120 h
[6] = system: Human immunodeficiency virus 1; assay: Antiviral activity against HIV-1 Y181C mutant infected in human MT4 cells assessed as protection against virus-induced cytopathic effect incubated for 5 days by MTT assay; format: functional, organism-based; conditions: Human immunodeficiency virus 1, MT4, 120 h
[7] = system: Human immunodeficiency virus 1; assay: Antiviral activity against HIV-1 Y188L mutant infected in human MT4 cells assessed as protection against virus-induced cytopathic effect incubated for 5 days by MTT assay; format: functional, organism-based; conditions: Human immunodeficiency virus 1, MT4, 120 h
[8] = system: Human immunodeficiency virus 1; assay: Antiviral activity against HIV-1 E138K mutant infected in human MT4 cells assessed as protection against virus-induced cytopathic effect incubated for 5 days by MTT assay; format: functional, organism-based; conditions: Human immunodeficiency virus 1, MT4, 120 h
[9] = system: Human immunodeficiency virus 1; assay: Antiviral activity against HIV-1 F227L/V106A mutant infected in human MT4 cells assessed as protection against virus-induced cytopathic effect incubated for 5 days by MTT assay; format: functional, organism-based; conditions: Human immunodeficiency virus 1, MT4, 120 h
[10] = target: Human immunodeficiency virus type 1 reverse transcriptase (Human immunodeficiency virus 1, UniProt Q72547); assay: Inhibition of wild type HIV-1 reverse transcriptase assessed as inhibition of biotin-dUTP incorporation using ABTS as substrate incubated for 1 hrs by ELISA analysis
in vitro = conditions: human, MT4 cells
Description: Selectivity index, ratio of CC50 for cytotoxicity against human MT4 cells to EC50 for antiviral activity against wild type HIV-1 IIIB infected in human MT4 cells

[11] = system: Human immunodeficiency virus 1; assay: microbe, parasite or virus in culture; conditions: Human immunodeficiency virus 1, MT4, 120 h
Description: Antiviral activity against HIV-1 RES056 mutant infected in human MT4 cells assessed as protection against virus-induced cytopathic effect incubated for 5 days by MTT assay

Cc1cc(C#N)cc(C)c1Oc1nc(Nc2ccc(CN3CCN(S(C)(=O)=O)CC3)cc2)c(C#N)cc1Cl
EC50 [1]: > 208 nM
EC50 [2]: 14.5 nM
CC50 at 120 h [3]: 208000 nM
EC50 [4]: 238 nM
EC50 [5]: 633 nM
EC50 [6]: 555 nM
EC50 [7]: 2960 nM
EC50 [8]: 131 nM
EC50 [9]: 276 nM
IC50 [10]: 392 nM
selectivity ratio (in vitro): 14300
EC50 [11]: > 208000 nM

O=C1Nc2ccc(Cl)cc2[C@@](C#CC2CC2)(C(F)(F)F)O1 [EFAVIRENZ]
EC50 [2]: 2.53 nM
CC50 at 120 h [3]: > 6340 nM
EC50 [4]: 31.8 nM
EC50 [5]: 114 nM
EC50 [6]: 6.34 nM
EC50 [7]: 355 nM
EC50 [8]: 6.34 nM
EC50 [9]: 890 nM

Cc1cc(C#N)cc(C)c1Oc1ccc(C#N)c(Nc2ccc(CN3CCN(S(C)(=O)=O)CC3)cc2)n1
EC50 [1]: > 18 nM
EC50 [2]: 40.7 nM
CC50 at 120 h [3]: 18000 nM
IC50 [10]: 277 nM
selectivity ratio (in vitro): 444

Cc1cc(C#N)cc(C)c1Oc1ccc(C#N)c(NC2CCN(Cc3ccc(S(N)(=O)=O)cc3)CC2)n1
EC50 [1]: > 21.8 nM
EC50 [2]: 3.87 nM
CC50 at 120 h [3]: 21800 nM
EC50 [4]: 73.6 nM
EC50 [5]: 19.4 nM
EC50 [6]: 36.8 nM
EC50 [7]: 114 nM
EC50 [8]: 19.4 nM
EC50 [9]: 194 nM
IC50 [10]: 205 nM
selectivity ratio (in vitro): 5630
EC50 [11]: 2780 nM

Cc1cc(C#N)cc(C)c1Oc1nc(NC2CCN(Cc3ccc(S(N)(=O)=O)cc3)CC2)c(C#N)cc1F
EC50 [1]: > 25.2 nM
EC50 [2]: 11.2 nM
CC50 at 120 h [3]: 25200 nM
EC50 [4]: 43 nM
EC50 [5]: 16.8 nM
EC50 [6]: 44.9 nM
EC50 [7]: 157 nM
EC50 [8]: 52.4 nM
EC50 [9]: 234 nM
IC50 [10]: 292 nM
selectivity ratio (in vitro): 2250
EC50 [11]: 260 nM

Cc1cc(C#N)cc(C)c1Oc1nc(Nc2ccc(C#N)c(C#N)c2)c(C#N)cc1F
EC50 [1]: > 306 nM
EC50 [2]: 26.9 nM
CC50 at 120 h [3]: > 306000 nM
IC50 [10]: 230 nM
selectivity ratio (in vitro): > 11400

Cc1cc(C#N)cc(C)c1Oc1nc(Nc2ccc(CN3CCN(S(=O)(=O)N(C)C)CC3)cc2)c(C#N)cc1Cl
EC50 [1]: > 178 nM
EC50 [2]: 69 nM
CC50 at 120 h [3]: 178000 nM
IC50 [10]: 686 nM
selectivity ratio (in vitro): 2580

Cc1cc(C#N)cc(C)c1Oc1nc(NC2CCN(Cc3ccc(S(C)(=O)=O)cc3)CC2)c(C#N)cc1F
EC50 [1]: > 27 nM
EC50 [2]: 5.62 nM
CC50 at 120 h [3]: 27500 nM
EC50 [4]: 22.5 nM
EC50 [5]: 9.37 nM
EC50 [6]: 28.1 nM
EC50 [7]: 73.1 nM
EC50 [8]: 18.7 nM
EC50 [9]: 67.5 nM
IC50 [10]: 341 nM
selectivity ratio (in vitro): 4890
EC50 [11]: 171 nM

Cc1cc(C#N)cc(C)c1Oc1nc(Nc2ccc(CN3CCN(S(=O)(=O)N(C)C)CC3)cc2)c(C#N)cc1F
EC50 [1]: > 149 nM
EC50 [2]: 200 nM
CC50 at 120 h [3]: 149000 nM
IC50 [10]: 2600 nM
selectivity ratio (in vitro): 744

Cc1cc(C#N)cc(C)c1Oc1nc(NC2CCN(Cc3ccc(S(C)(=O)=O)cc3)CC2)c(C#N)cc1Cl
EC50 [1]: > 227 nM
EC50 [2]: 21.8 nM
CC50 at 120 h [3]: > 227000 nM
IC50 [10]: 449 nM
selectivity ratio (in vitro): > 10400

Cc1ccnc2c1NC(=O)c1cccnc1N2C1CC1 [NEVIRAPINE]
EC50 [1]: > 9.51 nM
CC50 at 120 h [3]: > 9510 nM
EC50 [4]: 1990 nM
EC50 [6]: 4210 nM
EC50 [7]: > 9510 nM
EC50 [8]: 76.1 nM
EC50 [9]: > 9510 nM
EC50 [11]: > 9510 nM

Cc1cc(C#N)cc(C)c1Oc1ccc(C#N)c(Nc2ccc(C#N)cc2)n1
EC50 [1]: > 326 nM
EC50 [2]: 7.82 nM
CC50 at 120 h [3]: > 65200 nM
EC50 [4]: 123 nM
EC50 [5]: 446 nM
EC50 [6]: 1540 nM
EC50 [7]: ≥ 33000 nM
EC50 [8]: 54.8 nM
EC50 [9]: 10900 nM
IC50 [10]: 94 nM
selectivity ratio (in vitro): > 8330
EC50 [11]: > 65200 nM

Cc1cc(C#N)cc(C)c1Oc1nc(Nc2ccc(CN3CCN(S(C)(=O)=O)CC3)cc2)c(C#N)cc1F
EC50 [1]: > 213 nM
EC50 [2]: 44.9 nM
CC50 at 120 h [3]: 213000 nM
IC50 [10]: 294 nM
selectivity ratio (in vitro): 4740

Cc1cc(C#N)cc(C)c1Oc1nc(Nc2ccc(C#N)c(C#N)c2)c(C#N)cc1Cl
EC50 [1]: > 202 nM
EC50 [2]: 14.1 nM
CC50 at 120 h [3]: 202000 nM
EC50 [4]: 313 nM
EC50 [5]: 233 nM
EC50 [6]: 1120 nM
EC50 [7]: > 202000 nM
EC50 [8]: 287 nM
EC50 [9]: 2250 nM
IC50 [10]: 144 nM
selectivity ratio (in vitro): 14300
EC50 [11]: > 202000 nM

Cc1cc(C#N)cc(C)c1Oc1ccc(C#N)c(NC2CCN(Cc3ccc(C(N)=O)cc3)CC2)n1
EC50 [1]: > 28.6 nM
EC50 [2]: 8.32 nM
CC50 at 120 h [3]: 28600 nM
EC50 [4]: 318 nM
EC50 [5]: 110 nM
EC50 [6]: 110 nM
EC50 [7]: 348 nM
EC50 [8]: 50 nM
EC50 [9]: 1020 nM
IC50 [10]: 256 nM
selectivity ratio (in vitro): 3440
EC50 [11]: 4250 nM

Cc1cn([C@@H]2C[C@@H](N=[N+]=[N-])[C@H](CO)O2)c(=O)[nH]c1=O
EC50 [1]: 0.036 nM
EC50 [2]: 30 nM
CC50 at 120 h [3]: > 7480 nM
EC50 [4]: 10.5 nM
EC50 [5]: 29.6 nM
EC50 [6]: 22.1 nM
EC50 [7]: 21 nM
EC50 [8]: 23.6 nM
EC50 [9]: 37.8 nM
selectivity ratio (in vitro): > 250
EC50 [11]: 28.8 nM

Cc1cc(C#N)cc(C)c1Oc1ccc(C#N)c(Nc2ccc(C#N)c(C#N)c2)n1
EC50 [1]: > 320 nM
EC50 [2]: 115 nM
CC50 at 120 h [3]: > 320000 nM
IC50 [10]: 697 nM
selectivity ratio (in vitro): > 2780

Cc1cc(C#N)cc(C)c1Oc1ccc(C#N)c(Nc2ccc(CN3CCN(S(=O)(=O)N(C)C)CC3)cc2)n1
EC50 [1]: > 5.17 nM
EC50 [2]: 197 nM
CC50 at 120 h [3]: 5170 nM
IC50 [10]: 1550 nM
selectivity ratio (in vitro): 26

Cc1cc(C#N)cc(C)c1Oc1ccc(C#N)c(Nc2ccc(C#N)c(F)c2)n1
EC50 [1]: > 27.3 nM
EC50 [2]: 1460 nM
CC50 at 120 h [3]: 27300 nM
IC50 [10]: 12000 nM
selectivity ratio (in vitro): 19

Cc1cc(C#N)cc(C)c1Oc1nc(Nc2ccc(C#N)cc2)nc(N)c1Br [ETRAVIRINE]
CC50 at 120 h [3]: > 4600 nM
EC50 [4]: 4.6 nM
EC50 [5]: 3.45 nM
EC50 [6]: 8.96 nM
EC50 [7]: 18.4 nM
EC50 [8]: 4.82 nM
EC50 [11]: 20.2 nM

Cc1cc(C#N)cc(C)c1Oc1nc(NC2CCN(Cc3ccc(S(N)(=O)=O)cc3)CC2)c(C#N)cc1Cl
EC50 [1]: > 22.6 nM
EC50 [2]: 32.7 nM
CC50 at 120 h [3]: 22600 nM
IC50 [10]: 466 nM
selectivity ratio (in vitro): 691

Cc1cc(C#N)cc(C)c1Oc1nc(Nc2ccc(C#N)cc2)c(C#N)cc1Cl
EC50 [1]: > 240 nM
EC50 [2]: 28.7 nM
CC50 at 120 h [3]: 240000 nM
IC50 [10]: 153 nM
selectivity ratio (in vitro): 8340

Cc1cc(C#N)cc(C)c1Oc1nc(Nc2ccc(C#N)c(F)c2)c(C#N)cc1Cl
EC50 [1]: > 282 nM
EC50 [2]: 25 nM
CC50 at 120 h [3]: 282000 nM
IC50 [10]: 98 nM
selectivity ratio (in vitro): 11300

From ChEMBL document CHEMBL5625210, “5-Cyano substituted diarylpyridines as potent HIV-1 NNRTIs: Rational design, synthesis, and activity evaluation” (Eur J Med Chem, 2023)
